Experimental data published in a melting point compilation (Tetko et al.).

Row | Structure (SMILES) | melting point [°C]
1 | CCCCC(=O)OCC(=O)C1(O)Cc2c(O)c3c(c(O)c2C(OC2CC(NC(=O)C(F)(F)F)C(O)C(C)O2)C1)C(=O)c1c(OC)cccc1C3=O (stereo unspecified) | 136
2 | CCOC(=O)c1cnn(-c2ccc([N+](=O)[O-])cc2)c1N | 203 to 204
3 | COC(=O)c1ccccc1[N+](=O)[O-] | -13
4 | O=Cc1ccccc1Cn1cncn1 | 59
5 | NCc1ccccc1O | 127 to 131
6 | O=Cc1ccc2oc(C(=O)c3ccc(Br)cc3)cc2c1 | 177 to 178
7 | Fc1c(F)c(F)c(Br)c(F)c1F | -31
8 | NC(=O)C1CCCNC1 (stereo unspecified) | 102 to 108
9 | CCOC(C)(C)C | -94
10 | Clc1ccc(C(Cl)(Cl)Cl)cc1 | 5.8
11 | S=C1NCCCN1 | 211
12 | Cc1nc2scc(-c3ccccc3)c2c(=O)n1NC(=O)c1ccc(F)cc1 | 138 to 140
13 | O=C1c2cccc(O)c2C(=O)c2c(O)cc(CO)cc21 | 224
14 | COc1ccc(-c2occ(C(=O)c3ccccc3)c2S(=O)(=O)c2ccccc2)cc1 | 110
15 | O=C(O)C1CCCCC1C(=O)OCCO (stereo unspecified) | 90
16 | O=C(Cc1ccccc1)C(=O)C(Br)c1ccccc1 (stereo unspecified) | 73
17 | CCN(CC)C(=O)SCc1ccccc1Cl | 9
18 | CCCCCCCCCCCCCCCCCCCO | 63.3
19 | [O-][N+]1=C(c2ccccn2)/C(=N\O)c2ccccc21 | 215 to 217
20 | Cc1nc(N)nc(O)n1 | 300
21 | O=C(CCCN1CCN(c2ccccn2)CC1)c1ccc(F)cc1 | 92
22 | COC1=C(OC)C(=O)C(C)=C(C)C1=O | 62.5
23 | C=C1C(=O)OC2C1CCC(C)C1C=CC(=O)C12C (stereo unspecified) | 146
24 | Cc1cc(C(=O)Cl)ccc1Br | 26
25 | COc1ccc(S(N)(=O)=O)cc1F | 126
26 | Cc1c(Cc2c(C)n(C)n(-c3ccccc3)c2=O)c(=O)n(-c2ccccc2)n1C | 155

Row | Structure (SMILES) | melting point [°C]
27 | O=C1CCC(c2ccc(NC(=O)c3ccc(F)cc3)cc2)=NN1 | 285 to 287
28 | O=CC(Cl)=C(Cl)C(=O)O | 127
29 | Cn1c(=O)c2c(nc(Cl)n2CC(=O)O)n(C)c1=O | 198 to 199
30 | N=C(N)N[C@@H](Cc1ccccc1)C(=O)O | 250 to 253
31 | NC(=O)NC(CC(=O)O)C(=O)O (racemic) | 174 to 175
32 | COC(=O)c1cc(Cl)cc(C(=O)OC)c1 | 78 to 80
33 | C[Si](C)(C)CCS(=O)(=O)c1ccccc1 | 50 to 53
34 | c1ccc(-c2ccccc2P(C2CCCCC2)C2CCCCC2)cc1 | 102 to 106
35 | NCc1ccccc1Sc1ccccc1CO | 97
36 | CC(C)(C)OC(=O)CC(NC(=O)OCC1c2ccccc2-c2ccccc21)C(=O)O (stereo unspecified) | 147 to 151
37 | NC(=O)CCSCCC(N)=O | 183 to 186
38 | CCCCCOC(=O)CCCC | -78.8
39 | O=C(C=CC(=O)Oc1ccccc1)Oc1ccccc1 | 73
40 | Cc1cc(C)c(S(=O)(=O)n2cnc([N+](=O)[O-])n2)c(C)c1 | 132 to 134
41 | CC(=O)c1[nH]c(C)cc1C | 118 to 121
42 | Brc1ccc2c(c1)CNCC2 | 34
43 | NS(=O)(=O)c1ccc(S(=O)(=O)CCCCO)c(F)c1 | 134
44 | CC1=NNC(=O)C1=NNc1ccccc1C(=O)O | 239
45 | O=C(Cl)c1ccc(-c2ccco2)cc1 | 101 to 103
46 | CC(=O)c1c(C)nc2cc3nc(C)c(C(C)=O)c(C)c3cc2c1C | 246 to 248
47 | Brc1cccc2c1Oc1cccc(Br)c1O2 | 207
48 | Oc1cc(Cl)c(-c2ccccc2)nn1 | 235 to 236
49 | CC(=O)Nc1ccc(N)cn1 | 154
50 | c1ccc(OCc2nnc3sc(-c4cccc5ccccc45)nn23)cc1 | 134
51 | Clc1ccnc2ccccc12 | 34.5
52 | OCC1CCN(c2ncnc3ccsc23)CC1 | 126 to 128

Row | Structure (SMILES) | melting point [°C]
53 | COC(=O)c1cc(OCc2ccccc2)cc(OCc2ccccc2)c1 | 67 to 70
54 | Cc1cccc2ccc3ccccc3c12 | 53.5
55 | FC(F)(F)c1ccc2nsnc2c1 | 36 to 37
56 | CC1CCC2(C)C3=C(C(=O)C4(CC4C)C(O)C3=O)C(O)C(O)C2C1C (stereo unspecified) | 177 to 178
57 | CC(C)(C)OC(=O)NCc1ccc(Br)s1 | 51 to 54
58 | O=P1(O)Oc2ccc3ccccc3c2-c2c(ccc3ccccc23)O1 | 320
59 | O=[N+]([O-])c1ccc(NN=Cc2cccc3c(Br)cccc23)cc1 | 267 to 268
60 | CCCCCCCOO | 35.5
61 | Clc1cccc2cccc(Cl)c12 | 89
62 | CCCCc1ccc(O)cc1 | 22
63 | O=C(C1=NOC2C(=O)N(c3cccc4ccccc34)C(=O)C12)c1cccs1 (stereo unspecified) | 80
64 | NS(=O)(=O)c1cccc([N+](=O)[O-])c1 | 167
65 | COc1ccc(C(=O)c2cc(OC)c(OC)cc2[N+](=O)[O-])cc1 | 147
66 | O=C(CCl)C(Cl)(Cl)Cl | 65
67 | CC1=Nc2ccccc2Nc2c1c(=O)n(-c1ccccc1)c1ccccc21 | 297 to 299
68 | CC(=O)c1ccc(I)s1 | 128
69 | CC(c1ccccc1)N1CC(C(=O)O)CC1=O (stereo unspecified) | 210 to 213
70 | C#Cc1ccc2nccnc2c1 | 98
71 | NC(=O)Nc1ccccc1 | 147
72 | C=C1C(=O)C23C4CC5C(C)(C)CCCC56COC(CC1C2OC(C)(C)O4)C63 (stereo unspecified) | 163
73 | Nc1nn2c(-c3ccccc3)cc(=O)[nH]c2c1/N=N/c1ccc(Cl)cc1 | 312
74 | CCCCCCCCCCCCc1ccccc1 | 3
75 | Cc1ccc(C(=O)O)c(N)c1 | 160 to 161
76 | Cc1ccc(C(O)c2cc(C)ccc2O)cc1 (stereo unspecified) | 98
77 | COC(=O)c1cc(Br)cc(C(=O)OC)c1 | 89 to 91
78 | CC(CC(=O)O)C1CCC2C3CCC4CCCCC4(C)C3CCC12C (stereo unspecified) | 177

Row | Structure (SMILES) | melting point [°C]
79 | COc1ccc(C(=O)c2ccc(Cl)cc2)cc1OC | 109
80 | O=C(O)c1ccc(OC(=O)c2ccccc2)cc1 | 89
81 | Nc1c(C(=O)Oc2ccccc2)sc2sc(C(=O)Oc3ccccc3)c(N)c12 | 165
82 | Oc1cc(F)ccc1F | 38
83 | OCC12CC3CC(CC(C3)C1)C2 | 140
84 | O=C(Cl)c1cccc(Cl)c1Cl | 30
85 | CC(CN1c2ccccc2Sc2ccccc21)N(C)C (stereo unspecified) | 60
86 | O=C(Oc1c(F)c(F)c(F)c(F)c1F)c1ccc(OC2CCOCC2)cc1 | 111 to 114
87 | C/C(=N\c1ccc(O)c(C)c1)c1c(O)c2ccccc2n(-c2ccccc2)c1=O | 231 to 232
88 | O=S(=O)(Cl)Cc1ccccc1F | 55 to 56
89 | CC(=O)CCc1oc2ccc(Br)cc2c1-c1ccc(C)o1 | 79
90 | O=C(O)c1ccccc1N=NC1SC(=S)NC1=O (stereo unspecified) | 244 to 245
91 | CCCCCCCCCCCC(=O)OCC | -2
92 | N#CCCC1CCCCCCCCCCC1=O (stereo unspecified) | 60 to 61
93 | N#Cc1[nH]cnc2ncnc1-2 | 188
94 | Clc1ncccc1-c1cccc(Br)n1 | 140
95 | O=[N+]([O-])c1ccc(-c2nnc3sc(/C=C/c4ccccc4)nn23)cc1 | 112 to 114
96 | C[Si](C)(C)OC1(C#N)c2ccccc2CCc2ccccc2C1(C#N)O[Si](C)(C)C (stereo unspecified) | 88
97 | CCOC(=O)c1c(C)c(C(C)=O)c(C)n1C | 61 to 62
98 | Cc1ccc(SSc2ccc(C)cc2)cc1 | 47.5
99 | COc1ccc(C(=O)O)cc1Br | 220
100 | Cc1nc(-c2ccc(C(F)(F)F)cc2)sc1C#N | 155 to 156
101 | O=C(O)Cc1ccc(Cl)cc1C(F)(F)F | 89
102 | NC(=S)c1ccc2c(c1)OCCO2 | 140 to 144
103 | CCCCCCCCCCCCCCCC(=O)OCC(COP(=O)([O-])OCC[N+](C)(C)C)OC(=O)CCCCCCCCCCCCCCC (stereo unspecified) | 229 to 230
104 | NC(CSCc1ccccc1)C(=O)Nc1ccc([N+](=O)[O-])cc1 (stereo unspecified) | 100 to 102

Row | Structure (SMILES) | melting point [°C]
105 | CC1=C(C(=O)OCc2ccccc2)C(c2ccc3c(c2)OCO3)NC(=O)N1 (stereo unspecified) | 158 to 160
106 | Cc1cc(C=O)ccc1O | 119
107 | OCC[C@@H](O)c1ccccc1 | 62 to 66
108 | COC(=O)[C@@H]1CCCN1C(=O)COC(=O)c1ccccc1 | 72.5
109 | CCC1C(C=NO)=NC(C)(C)N1O (stereo unspecified) | 163 to 164
110 | O=C(OCCOC(=O)c1ccccc1)c1ccccc1 | 73.5
111 | CC1CCCC=CC2CC(O)CC2C(O)C=CC(=O)O1 (stereo unspecified) | 201 to 205
112 | CCOC(=O)CCC(=O)CC1(O)C2(Cl)C3(Cl)C4(Cl)C(Cl)(Cl)C5(Cl)C3(Cl)C1(Cl)C5(Cl)C42Cl (stereo unspecified) | 91
113 | Cc1oc(C)c(S(=O)(=O)NCc2cccs2)c1C(=O)O | 167 to 169
114 | COc1ccc(SCC(=O)O)cc1OC | 102
115 | N#C/C(=N\Nc1cccc(C(F)(F)F)c1)c1nc2ccccc2[nH]1 | 270
116 | CC(=O)c1c(C)n(O)c2ccc3nonc3c12 | 301 to 303
117 | CCOc1ccc(OC(=O)c2ccccc2)cc1 | 104
118 | Cc1ccc(F)c(O)c1Cl | 49
119 | NCc1ccc2c(Br)cccc2c1 | 111 to 112
120 | C[C@]12CCC(=O)C[C@H]1CC[C@@H]1[C@@H]2CC[C@]2(C)CCC[C@@]12O | 139 to 140
121 | Nc1ccc(CO)cn1 | 120
122 | C=C(C)CNC(=S)NC | 60 to 64
123 | Cc1ccc(NC(=O)C(F)(F)C(F)(F)C(F)(F)C(F)(F)C(F)(F)C(F)(F)C(F)(F)C(F)(F)F)cc1C | 111
124 | CCCCOC(=O)CC(=O)OCCCC | -83
125 | Cc1c(-c2ccccc2)oc2c(C(=O)O)cccc2c1=O | 235
126 | O=C(/C=C/Nc1ccccc1)c1ccc2c(c1)CCCC2 | 175
